For the experiment, the target named is T1, SIRT1 (Homo sapiens, UniProt Q96EB6).
T1 sequence (Q96EB6 1-747): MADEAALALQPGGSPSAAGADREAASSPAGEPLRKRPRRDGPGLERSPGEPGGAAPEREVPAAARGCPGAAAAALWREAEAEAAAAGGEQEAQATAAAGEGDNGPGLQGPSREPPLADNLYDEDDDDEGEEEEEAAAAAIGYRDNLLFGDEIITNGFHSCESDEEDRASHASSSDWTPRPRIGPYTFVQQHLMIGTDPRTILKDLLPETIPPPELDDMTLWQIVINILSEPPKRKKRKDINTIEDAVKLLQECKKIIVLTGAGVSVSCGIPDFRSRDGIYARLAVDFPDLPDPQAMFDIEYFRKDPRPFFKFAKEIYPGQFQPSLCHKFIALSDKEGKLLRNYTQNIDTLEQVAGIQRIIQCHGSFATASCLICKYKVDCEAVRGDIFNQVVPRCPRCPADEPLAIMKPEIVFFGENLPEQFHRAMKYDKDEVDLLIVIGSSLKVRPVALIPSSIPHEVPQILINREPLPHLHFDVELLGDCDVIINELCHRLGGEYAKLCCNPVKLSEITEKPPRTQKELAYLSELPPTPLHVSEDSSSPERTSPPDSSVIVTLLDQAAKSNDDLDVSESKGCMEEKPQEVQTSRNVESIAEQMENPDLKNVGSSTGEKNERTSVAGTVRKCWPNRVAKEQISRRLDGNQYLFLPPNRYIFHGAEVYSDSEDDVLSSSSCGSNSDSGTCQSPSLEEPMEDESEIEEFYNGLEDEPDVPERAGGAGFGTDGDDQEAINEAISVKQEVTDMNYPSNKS
In words: Mass spectrometry based SIRT1 deacetylase activation assay (acetylated p53-derived peptide substrate). It is filed as biochemical.

Setting [1] is: 0.5 μM peptide substrate, 120 μM βNAD+, 10 nM SIRT1, 25 min at 25° C.
Where [2] appears, read: 0.5 μM peptide substrate, 120 μM βNAD+, 10 nM SIRT1, 25 min at 25° C., read-out: EC1.5.
[3] abbreviates: 0.5 μM peptide substrate, 120 μM βNAD+, 10 nM SIRT1, 25 minutes at 25° C.

Like-named read-outs stand apart in the source and are kept apart here.

In the case of `Cc1csc(-c2nc3c(C(=O)Nc4nccs4)cccc3[nH]2)n1` [Compound 292], the EC1.5 entry was “A (EC1.5<1.0 uM)” and the “Fold Act. (percent maximum fold activation)” value is given as “A (Fold activation >200%)”.
Regarding `Cc1cc(C)nc(NC(=O)c2cccc3[nH]c(-c4ccc(N5CCOCC5)cc4C(F)(F)F)nc23)c1` [Compound 590], the “Fold Act. (percent maximum fold activation)” value under setting [1] is reported as “A (Fold activation >200%)”. For the same molecule, under setting [2], the EC1.5 was < 1000 nM.
With `CS(=O)(=O)c1ccccc1-c1nc2c(C(=O)Nc3cccnc3)cccc2[nH]1` [Compound 518], the “Fold Act. (percent maximum fold activation)” value under setting [1] is listed as “A (Fold activation >200%)”. Further, the EC1.5 under setting [2] lay within 1000 to 25000 nM.
Take `O=C(Nc1ccc(Cl)nn1)c1cccc2[nH]c(-c3cccc(C(F)(F)F)c3)nc12` [Compound 309]: the EC1.5 entry is recorded as “C (EC1.5 >25 uM)” and the “Fold Act. (percent maximum fold activation)” value is given as “B (Fold Activation <200%)”.
As for `O=C(Nc1nccs1)c1cccc2[nH]c(-c3cccc(C(F)(F)F)c3)nc12` [Compound 202], the EC1.5 result is reported as “A (EC1.5<1.0 uM)” and the “Fold Act. (percent maximum fold activation)” value was “A (Fold activation >200%)”.
As to `O=C(Nc1nccs1)c1cccc2[nH]c(-c3ccc(OC4CCNC4)cc3)nc12` (centres unmarked) [Compound 441], the “Fold Act. (percent maximum fold activation)” value under setting [1] is “A (Fold activation >200%)”. Moreover, the EC1.5 under setting [2] is < 1000 nM.
Regarding `CN1CCOc2cc(-c3nc4c(C(=O)Nc5nccs5)cccc4[nH]3)cnc21` [Compound 371], the EC1.5 result is “A (EC1.5<1.0 uM)” and the “Fold Act. (percent maximum fold activation)” value was “A (Fold activation >200%)”.
Take `O=C(Nc1nccs1)c1cccc2[nH]c(-c3ccccc3OCCN3CC[C@@H](F)C3)nc12` [Compound 507]: the “Fold Act. (percent maximum fold activation)” value under setting [1] is given as “B (Fold Activation <200%)”. The EC1.5 under setting [2] is 1000 to 25000 nM.
In the case of `O=C(Nc1nccs1)c1cncc2nc(-c3ccc(OC[C@@H](O)CO)cc3C(F)F)[nH]c12` [Compound 771], under setting [3], the EC1.5 entry is recorded as “A (EC1.5<1.0 uM)” and the “Fold Act. (percent maximum fold activation)” value is listed as “A (Fold activation >200%)”.
In the case of `Cc1cc(NC(=O)c2cccc3[nH]c(-c4cnc5c(c4)OCCN5C)nc23)n(C)n1` [Compound 523], the “Fold Act. (percent maximum fold activation)” value under setting [1] is reported as “B (Fold Activation <200%)”. For the same molecule, the EC1.5 under setting [2] is > 25000 nM.
For the molecule `O=C(Nc1nccs1)c1cccc2[nH]c(-c3ccccc3OCCN3CCC(F)(F)CC3)nc12` [Compound 579], under setting [1], the “Fold Act. (percent maximum fold activation)” value is on record as “B (Fold Activation <200%)”. Moreover, under setting [2], the EC1.5 is > 25000 nM.
Take `O=C(Nc1nccs1)c1cccc2[nH]c(-c3cccc(N4CCCC4)c3)nc12` [Compound 236]: the EC1.5 result is “B (EC1.5 1-25 uM)” and the “Fold Act. (percent maximum fold activation)” value was “B (Fold Activation <200%)”.
Consider `O=C(Nc1nccs1)c1cccc2[nH]c(-c3ccc(N4CCCC4)cc3C(F)(F)F)nc12` [Compound 572], for which the “Fold Act. (percent maximum fold activation)” value under setting [1] was “A (Fold activation >200%)”. Further, under setting [2], the EC1.5 is 1000 to 25000 nM.
With `O=C(Nc1ccccn1)c1cccc2[nH]c(-c3ccc(OC[C@H](O)CO)cc3C(F)(F)F)nc12` [Compound 744], under setting [3], the EC1.5 result is “A (EC1.5<1.0 uM)” and the “Fold Act. (percent maximum fold activation)” value is “A (Fold activation >200%)”.
On to `O=C(Nc1ccccn1)c1cc(F)cc2nc(-c3cc(F)ccc3C(F)F)[nH]c12` [Compound 837], for which, under setting [3], the EC1.5 result was “A (EC1.5<1.0 uM)” and the “Fold Act. (percent maximum fold activation)” value is “A (Fold activation >200%)”.
Turning to `Cc1nn(-c2ccccc2)c(C)c1-c1nc2c(C(=O)Nc3nccs3)cccc2[nH]1` [Compound 291], the EC1.5 result is “A (EC1.5<1.0 uM)” and the “Fold Act. (percent maximum fold activation)” value was “A (Fold activation >200%)”.
For the molecule `O=C(Nc1ccccn1)c1cccc2[nH]c(-c3ccc(OCC(O)CO)cc3C(F)F)nc12` (centres unmarked) [Compound 558], the “Fold Act. (percent maximum fold activation)” value under setting [1] is given as “A (Fold activation >200%)”. The EC1.5 under setting [2] is < 1000 nM.
Taken in the same sequence, the figures for `O=C(Nc1cccnc1)c1cccc2[nH]c(-c3ccc(N4CC[C@@H](F)C4)cc3C(F)(F)F)nc12` [Compound 575] were “A (Fold activation >200%)” and < 1000 nM.
`O=C(Nc1ccccn1)c1cccc2[nH]c(-c3ccc(N4CC[C@H](F)C4)cc3C(F)(F)F)nc12` [Compound 607]: under setting [3], the EC1.5 result is on record as “A (EC1.5<1.0 uM)” and the “Fold Act. (percent maximum fold activation)” value is listed as “A (Fold activation >200%)”.
For `O=C(Nc1nccs1)c1cccc2[nH]c(-c3ccc4ccccc4c3)nc12` [Compound 228], the EC1.5 entry was “B (EC1.5 1-25 uM)” and the “Fold Act. (percent maximum fold activation)” value was “A (Fold activation >200%)”.
Turning to `O=C(Nc1cnccn1)c1cccc2[nH]c(-c3cccc(C(F)(F)F)c3)nc12` [Compound 203], the EC1.5 entry was “A (EC1.5<1.0 uM)” and the “Fold Act. (percent maximum fold activation)” value was “A (Fold activation >200%)”.
Take `O=C(Nc1nccs1)c1cccc2[nH]c(-c3ccccc3C(F)F)nc12` [Compound 514]: the “Fold Act. (percent maximum fold activation)” value under setting [1] is listed as “A (Fold activation >200%)”. Under setting [2], the EC1.5 is < 1000 nM.
Regarding `O=C(Nc1ccccn1)c1cncc2[nH]c(-c3ccc(Cl)cc3C(F)(F)F)nc12` [Compound 649], under setting [3], the EC1.5 entry was “A (EC1.5<1.0 uM)” and the “Fold Act. (percent maximum fold activation)” value is “A (Fold activation >200%)”.
`CN1CCOc2cc(-c3nc4c(C(=O)Nc5ccccn5)cccc4[nH]3)cnc21` [Compound 439]: under setting [1], the “Fold Act. (percent maximum fold activation)” value is “B (Fold Activation <200%)”. The EC1.5 under setting [2] was > 25000 nM.
For the molecule `O=C(Nc1cccnc1)c1cccc2[nH]c(-c3ccccc3C(F)(F)F)nc12` [Compound 243], the EC1.5 entry is reported as “A (EC1.5<1.0 uM)” and the “Fold Act. (percent maximum fold activation)” value is “A (Fold activation >200%)”.
Consider `O=C(Nc1nccs1)c1cccc2[nH]c(-c3ccccc3OCC(O)CO)nc12` (centres unmarked) [Compound 326], for which the EC1.5 result was “B (EC1.5 1-25 uM)” and the “Fold Act. (percent maximum fold activation)” value is recorded as “A (Fold activation >200%)”.
As to `Cc1nc(NC(=O)c2cccc3[nH]c(-c4ccc(F)cc4C(F)(F)F)nc23)sc1C` [Compound 358], the EC1.5 result is on record as “A (EC1.5<1.0 uM)” and the “Fold Act. (percent maximum fold activation)” value is reported as “A (Fold activation >200%)”.
As for `C[C@@H]1CN(c2ccc(-c3nc4c(C(=O)Nc5cccnc5)cccc4[nH]3)c(C(F)(F)F)c2)C[C@H](C)O1` [Compound 604], under setting [3], the EC1.5 entry is given as “A (EC1.5<1.0 uM)” and the “Fold Act. (percent maximum fold activation)” value is recorded as “A (Fold activation >200%)”.
The like results for `Cc1cnc(NC(=O)c2cncc3[nH]c(-c4cc(F)ccc4C(F)(F)F)nc23)s1` [Compound 657] were, in that order, “A (EC1.5<1.0 uM)” and “A (Fold activation >200%)”.
For `O=C(Nc1ccc(OC[C@H](O)CO)cc1)c1cccc2[nH]c(-c3cccnc3)nc12` [Compound 797], under setting [3], the EC1.5 entry is “A (EC1.5<1.0 uM)” and the “Fold Act. (percent maximum fold activation)” value was “A (Fold activation >200%)”.
Consider `Cc1nc(C)c(-c2nc3c(C(=O)Nc4cccnc4)cccc3[nH]2)s1` [Compound 319], for which the EC1.5 entry is reported as “A (EC1.5<1.0 uM)” and the “Fold Act. (percent maximum fold activation)” value is “A (Fold activation >200%)”.
As to `O=C(Nc1cccc(OC2CCNCC2)c1)c1cccc2[nH]c(-c3ccc(F)cc3C(F)(F)F)nc12` [Compound 661], under setting [3], the EC1.5 entry was “A (EC1.5<1.0 uM)” and the “Fold Act. (percent maximum fold activation)” value is on record as “A (Fold activation >200%)”.
Regarding `O=C(Nc1nccs1)c1cccc2[nH]c(-c3ccc(OC[C@H](O)CO)cc3C(F)F)nc12` [Compound 556, (R)-2-(2-(difluoromethyl)-4-(2,3-dihydroxypropoxy)phenyl)-N-(thiazol-2-yl)-1H-benzo[d]imidazole-4-carboxamide], the “Fold Act. (percent maximum fold activation)” value under setting [1] is listed as “A (Fold activation >200%)”. Under setting [2], the EC1.5 is < 1000 nM.
On to `O=C(Nc1ccccn1)c1cccc2[nH]c(-c3cc(N4CC[C@H](F)C4)ccc3C(F)(F)F)nc12` [Compound 666], for which, under setting [3], the EC1.5 entry is reported as “B (EC1.5 1-25 uM)” and the “Fold Act. (percent maximum fold activation)” value is “B (Fold Activation <200%)”.
`O=C(Nc1nccs1)c1cccc2[nH]c(-c3cccc(OCC(O)CO)c3)nc12` (centres unmarked) [Compound 324, 2-(3-(2,3-dihydroxypropoxy)phenyl)-N-(thiazol-2-yl)-1H-benzo[d]imidazole-4-carboxamide]: the EC1.5 entry is “A (EC1.5<1.0 uM)” and the “Fold Act. (percent maximum fold activation)” value is “A (Fold activation >200%)”.
Taken in the same sequence, the figures for `O=C(NC1CCOCC1)c1cccc2[nH]c(-c3cccc(C(F)(F)F)c3)nc12` [Compound 275] were “B (EC1.5 1-25 uM)” and “A (Fold activation >200%)”.
In the case of `CCCN1CCCc2ccc(-c3nc4c(C(=O)Nc5cccnc5)cccc4[nH]3)cc21` [Compound 497], the “Fold Act. (percent maximum fold activation)” value under setting [1] is given as “A (Fold activation >200%)”. Moreover, under setting [2], the EC1.5 fell in the range of 1000 to 25000 nM.
